{"source": "patent US6355799B1", "about": "“Substituted benzene compounds, process for their preparation, and herbicidal and defoliant compositions containing them” (ISK Americas Incorporated, priority 1997, dated 2002)", "type_in_all_cases": "in vivo", "key": {"[1]": {"test_system": "field corn (Zea mays L., var. Dekalb 535, CORN)", "experiment": "Pre-emerge test, crop safety", "details": "pre-emerge, 14 days after application, rating scale 0-100", "method_in_brief": "(§1)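 Compounds in acetone were track-sprayed at 187 l/ha, 15–1000 g ai/ha, onto sandy loam pots. Pre-emerge seeds were sown one day before spraying, with surface watering afterwards. Post-emerge plants were at the 2–3 leaf stage and sprayed with 0.25% v/v non-ionic surfactant. Injury was rated 0–100 at 14 days.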"}, "[2]": {"test_system": "upland rice (Oryza sp., var. Tebonnet, RICE)", "experiment": "Pre-emerge test, crop safety", "details": "pre-emerge, 14 days after application, rating scale 0-100", "method_in_brief": "as §1"}, "[3]": {"test_system": "johnsongrass (Sorghum halepense, SORHA)", "experiment": "Post-emerge test, greenhouse herbicide activity screening", "details": "post-emerge, 14 days after application, rating scale 0-100", "method_in_brief": "(§2)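 Herbicidal damage is scored 0 (none) to 100 (complete plant death) two weeks after a simulated field spray. Rates span 15–1000 g ai/ha, delivered in acetone at 187 l/ha. For post-emergence treatments, plants have 2–3 leaves and the spray carries 0.25% v/v non-ionic surfactant.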"}, "[4]": {"test_system": "sicklepod (Cassia obtusifolia, CASOB)", "experiment": "Post-emerge test, greenhouse herbicide activity screening", "details": "post-emerge, 14 days after application, rating scale 0-100", "method_in_brief": "as §2"}, "[5]": {"test_system": "velvetleaf (Abutilon theophrasti, ABUTH)", "experiment": "Post-emerge test, greenhouse herbicide activity screening", "details": "post-emerge, 14 days after application, rating scale 0-100", "method_in_brief": "as §2"}, "[6]": {"test_system": "barnyardgrass (Echinochloa crus-galli, ECHCG)", "experiment": "Post-emerge test, greenhouse herbicide activity screening", "details": "post-emerge, 14 days after application, rating scale 0-100", "method_in_brief": "as §2"}, "[7]": {"test_system": "lambsquarters (Chenopodium album, CHEAL)", "experiment": "Post-emerge test, greenhouse herbicide activity screening", "details": "post-emerge, 14 days after application, rating scale 0-100", "method_in_brief": "as §2"}, "[8]": {"test_system": "green foxtail (Setaria viridis, SETVI)", "experiment": "Post-emerge test, greenhouse herbicide activity screening", "details": "post-emerge, 14 days after application, rating scale 0-100", "method_in_brief": "as §2"}, "[9]": {"test_system": "ivyleaf morningglory (Ipomoea hederacea, IPOHE)", "experiment": "Post-emerge test, greenhouse herbicide activity screening", "details": "post-emerge, 14 days after application, rating scale 0-100", "method_in_brief": "as §2"}, "[10]": {"test_system": "redroot pigweed (Amaranthus retroflexus, AMARE)", "experiment": "Post-emerge test, greenhouse herbicide activity screening", "details": "post-emerge, 14 days after application", "method_in_brief": "as §2"}, "[11]": {"test_system": "large crabgrass (Digitaria sanguinalis, DIGSA)", "experiment": "Post-emerge test, greenhouse herbicide activity screening", "details": "post-emerge, 14 days after application, rating scale 0-100", "method_in_brief": "as §2"}, "[12]": {"test_system": "redroot pigweed (Amaranthus retroflexus, AMARE)", "experiment": "Pre-emerge test, greenhouse herbicide activity screening", "details": "pre-emerge, 14 days after application, rating scale 0-100", "method_in_brief": "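Sandy loam pots; pre-emerge: sown 1 d pre-spray, surface-watered after, then bottom-watered. Post-emerge: sown 8–21 d before, 2–3 leaf stage, + 0.25% v/v NIS, bottom-watered. Acetone, 187 l/ha track spray, 15–1000 g ai/ha. 0–100 injury score, day 14.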"}, "[13]": {"test_system": "field corn (Zea mays L., var. Dekalb 535, CORN)", "experiment": "Post-emerge test, crop safety", "details": "post-emerge, 14 days after application, rating scale 0-100", "method_in_brief": "(§3)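 Plants grown in 10 cm pots of sandy loam mix received acetone-dissolved compounds through a moving flat-fan nozzle. Doses ranged from 15 to 1000 g ai/ha. Pre-emerge pots were seeded one day earlier, post-emerge pots 8–21 days earlier. Fourteen days on, each pot was graded 0–100 for damage.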"}, "[14]": {"test_system": "upland rice (Oryza sp., var. Tebonnet, RICE)", "experiment": "Post-emerge test, crop safety", "details": "post-emerge, 14 days after application, rating scale 0-100", "method_in_brief": "as §3"}, "[15]": {"test_system": "johnsongrass (Sorghum halepense, SORHA)", "experiment": "Pre-emerge test, greenhouse herbicide activity screening", "details": "pre-emerge, 14 days after application, rating scale 0-100", "method_in_brief": "(§4)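 Rating: 0–100 visual injury, 14 DAA. Application: acetone, 187 l/ha, 15–1000 g ai/ha, flat-fan track sprayer with nozzle 40–45 cm above soil or canopy. Post-emerge runs used 0.25% v/v surfactant on 2–3 leaf plants.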"}, "[16]": {"test_system": "sicklepod (Cassia obtusifolia, CASOB)", "experiment": "Pre-emerge test, greenhouse herbicide activity screening", "details": "pre-emerge, 14 days after application, rating scale 0-100", "method_in_brief": "as §4"}, "[17]": {"test_system": "common ragweed (Ambrosia artemisizfolia L., AMBEL)", "experiment": "Pre-emerge test, greenhouse herbicide activity screening", "details": "pre-emerge, 14 days after application, rating scale 0-100", "method_in_brief": "as §4"}, "[18]": {"test_system": "velvetleaf (Abutilon theophrasti, ABUTH)", "experiment": "Pre-emerge test, greenhouse herbicide activity screening", "details": "pre-emerge, 14 days after application, rating scale 0-100", "method_in_brief": "as §4"}, "[19]": {"test_system": "barnyardgrass (Echinochloa crus-galli, ECHCG)", "experiment": "Pre-emerge test, greenhouse herbicide activity screening", "details": "pre-emerge, 14 days after application, rating scale 0-100", "method_in_brief": "as §4"}, "[20]": {"test_system": "lambsquarters (Chenopodium album, CHEAL)", "experiment": "Pre-emerge test, greenhouse herbicide activity screening", "details": "pre-emerge, 14 days after application, rating scale 0-100", "method_in_brief": "as §4"}, "[21]": {"test_system": "green foxtail (Setaria viridis, SETVI)", "experiment": "Pre-emerge test, greenhouse herbicide activity screening", "details": "pre-emerge, 14 days after application, rating scale 0-100", "method_in_brief": "as §4"}, "[22]": {"test_system": "ivyleaf morningglory (Ipomoea hederacea, IPOHE)", "experiment": "Pre-emerge test, greenhouse herbicide activity screening", "details": "pre-emerge, 14 days after application, rating scale 0-100", "method_in_brief": "as §4"}, "[23]": {"test_system": "large crabgrass (Digitaria sanguinalis, DIGSA)", "experiment": "Pre-emerge test, greenhouse herbicide activity screening", "details": "pre-emerge, 14 days after application, rating scale 0-100", "method_in_brief": "as §4"}}}
{"compound": "CCCOC(=O)C(Cl)Cc1c(OCC)c(Cl)cc(F)c1-n1c(=O)cc(C(F)(F)F)n(C)c1=O", "note": "(stereo not shown) [14-65]", "values": [{"measurement": "phytotoxicity rating CORN", "setting": "[1]; 63 g ai/ha", "result": 0}, {"measurement": "phytotoxicity rating CORN", "setting": "[1]; 250 g ai/ha", "result": 0}, {"measurement": "phytotoxicity rating RICE", "setting": "[2]; 63 g ai/ha", "result": 0}, {"measurement": "phytotoxicity rating RICE", "setting": "[2]; 250 g ai/ha", "result": 0}, {"measurement": "Post-emerge Herbicidal Activity SORHA (phytotoxicity rating)", "setting": "[3]; 63 g ai/ha", "result": 30}, {"measurement": "Post-emerge Herbicidal Activity SORHA (phytotoxicity rating)", "setting": "[3]; 250 g ai/ha", "result": 60}, {"measurement": "Post-emerge Herbicidal Activity CASOB (phytotoxicity rating)", "setting": "[4]; 63 g ai/ha", "result": 90}, {"measurement": "Post-emerge Herbicidal Activity CASOB (phytotoxicity rating)", "setting": "[4]; 250 g ai/ha", "result": 100}, {"measurement": "Post-emerge Herbicidal Activity ABUTH (phytotoxicity rating)", "setting": "[5]; 63 g ai/ha", "result": 100}, {"measurement": "Post-emerge Herbicidal Activity ABUTH (phytotoxicity rating)", "setting": "[5]; 250 g ai/ha", "result": 100}, {"measurement": "Post-emerge Herbicidal Activity ECHCG (phytotoxicity rating)", "setting": "[6]; 63 g ai/ha", "result": 100}, {"measurement": "Post-emerge Herbicidal Activity ECHCG (phytotoxicity rating)", "setting": "[6]; 250 g ai/ha", "result": 100}, {"measurement": "Post-emerge Herbicidal Activity CHEAL (phytotoxicity rating)", "setting": "[7]; 63 g ai/ha", "result": 90}, {"measurement": "Post-emerge Herbicidal Activity CHEAL (phytotoxicity rating)", "setting": "[7]; 250 g ai/ha", "result": 100}, {"measurement": "Post-emerge Herbicidal Activity SETVI (phytotoxicity rating)", "setting": "[8]; 63 g ai/ha", "result": 100}, {"measurement": "Post-emerge Herbicidal Activity SETVI (phytotoxicity rating)", "setting": "[8]; 250 g ai/ha", "result": 100}, {"measurement": "Post-emerge Herbicidal Activity IPOHE (phytotoxicity rating)", "setting": "[9]; 63 g ai/ha", "result": 50}, {"measurement": "Post-emerge Herbicidal Activity IPOHE (phytotoxicity rating)", "setting": "[9]; 250 g ai/ha", "result": 70}, {"measurement": "Post-emerge Herbicidal Activity AMARE (phytotoxicity rating)", "setting": "[10]; 63 g ai/ha, rating scale 0-100 (0 no damage, 100 complete death)", "result": 100}, {"measurement": "Post-emerge Herbicidal Activity AMARE (phytotoxicity rating)", "setting": "[10]; 250 g ai/ha, rating scale 0-100", "result": 100}, {"measurement": "Post-emerge Herbicidal Activity DIGSA (phytotoxicity rating)", "setting": "[11]; 63 g ai/ha", "result": 99}, {"measurement": "Post-emerge Herbicidal Activity DIGSA (phytotoxicity rating)", "setting": "[11]; 250 g ai/ha", "result": 100}, {"measurement": "phytotoxicity rating AMARE", "setting": "[12]; 63 g ai/ha", "result": 100}, {"measurement": "phytotoxicity rating AMARE", "setting": "[12]; 250 g ai/ha", "result": 100}, {"measurement": "Post-emerge Herbicidal Activity CORN (crop damage rating)", "setting": "[13]; 63 g ai/ha", "result": 0}, {"measurement": "Post-emerge Herbicidal Activity CORN (crop damage rating)", "setting": "[13]; 250 g ai/ha", "result": 50}, {"measurement": "Post-emerge Herbicidal Activity RICE (crop damage rating)", "setting": "[14]; 63 g ai/ha", "result": 0}, {"measurement": "Post-emerge Herbicidal Activity RICE (crop damage rating)", "setting": "[14]; 250 g ai/ha", "result": 10}, {"measurement": "phytotoxicity rating SORHA", "setting": "[15]; 63 g ai/ha", "result": 20}, {"measurement": "phytotoxicity rating SORHA", "setting": "[15]; 250 g ai/ha", "result": 20}, {"measurement": "phytotoxicity rating CASOB", "setting": "[16]; 63 g ai/ha", "result": 40}, {"measurement": "phytotoxicity rating CASOB", "setting": "[16]; 250 g ai/ha", "result": 80}, {"measurement": "phytotoxicity rating AMBEL", "setting": "[17]; 63 g ai/ha", "result": 100}, {"measurement": "phytotoxicity rating AMBEL", "setting": "[17]; 250 g ai/ha", "result": 70}, {"measurement": "phytotoxicity rating ABUTH", "setting": "[18]; 63 g ai/ha", "result": 90}, {"measurement": "phytotoxicity rating ABUTH", "setting": "[18]; 250 g ai/ha", "result": 100}, {"measurement": "phytotoxicity rating ECHCG", "setting": "[19]; 63 g ai/ha", "result": 0}, {"measurement": "phytotoxicity rating ECHCG", "setting": "[19]; 250 g ai/ha", "result": 80}, {"measurement": "phytotoxicity rating CHEAL", "setting": "[20]; 63 g ai/ha", "result": 60}, {"measurement": "phytotoxicity rating CHEAL", "setting": "[20]; 250 g ai/ha", "result": 100}, {"measurement": "phytotoxicity rating SETVI", "setting": "[21]; 63 g ai/ha", "result": 20}, {"measurement": "phytotoxicity rating SETVI", "setting": "[21]; 250 g ai/ha", "result": 90}, {"measurement": "phytotoxicity rating IPOHE", "setting": "[22]; 63 g ai/ha", "result": 40}, {"measurement": "phytotoxicity rating IPOHE", "setting": "[22]; 250 g ai/ha", "result": 70}, {"measurement": "phytotoxicity rating DIGSA", "setting": "[23]; 63 g ai/ha", "result": 90}, {"measurement": "phytotoxicity rating DIGSA", "setting": "[23]; 250 g ai/ha", "result": 100}]}
